In patent US8354424B2, “Method of treating actinic keratosis” (Medicis Pharmaceutical Corporation, priority 2005, dated 2013) one finds side effects data, which are given here for one compound.

The data set concerns actinic keratosis lesions. In words: Randomized, double-blind study, eight-week treatment period, topical cream on actinic keratosis lesions on the head. As to conditions: formulation with about 0.3 wt-% compound, twice per week, about 8 weeks, compared to other formulations or regimens. It counts as in vivo, human. How it is done:
A randomized, double-blind study was performed to evaluate single and multi-weekly doses of the formulations prepared above topically applied to actinic keratosis lesions on the head.
Otherwise healthy white (n=280) subjects (15% female, 85% male) ranging in ages 38 to 89 years of age (median age of 66.5), inclusive, with actinic keratosis lesions on the head were enrolled in the study. […] The actinic keratosis lesions areas were on the scalp (36%) and face (64%).
The study included an eight-week treatment period followed by an eight-week post-treatment period. […]
Subjects completed interval visits at treatment initiation, 1, 2, 4, and 8 weeks after treatment was initiated and at four and eight-weeks after the end of treatment. Subjects were monitored for erythema and other treatment site conditions during the entire 16 weeks of the study. Erythema, as assessed by study investigators, was defined as intense, moderate, mild, or no redness of the skin at the treatment site and given an intensity score of severe, moderate, mild, or none, respectively.
At the eight-week post-treatment visit, the treatment area was clinically evaluated for actinic keratosis lesions. Efficacy was measured as complete clearance of actinic keratosis lesions and partial clearance of actinic keratosis lesions at the eight-week post-treatment visit. […]

As for `Cc1nc2c(N)nc3cccnc3c2n1CC(C)C` [2-methyl-1-(2-methylpropyl)-1H-imidazo[4,5-c][1,5]naphthyridin-4-amine], the side effects result was “a low level of side effects”.
